Measured values as given in patent publication US5362879A, “4-5-diphenyloxazole derivatives as inhibitors of blood platelet aggregation” (Bristol-Myers Squibb Company, priority 1993, dated 1994).
Values after ≈ are worked out from the molar mass of the structure shown.

Experiments:
[1] = test system: human platelets in platelet-rich-plasma; assay: ADP-induced aggregation of human platelets in platelet-rich plasma (Born aggregometer method as modified by Mustard et al.); assay type: cell-based
Description: Platelet-rich plasma was prepared from human blood drain into syringes containing 1/10 volume of 3.8% sodium citrate. The blood was then subjected to centrifugation for about 10 minutes at 140 g and then the platelet-rich plasma decanted. The test compound was dissolved in DMSO (5 μL) and added to PRP (0.9 mL) 3 minutes prior to the addition of ADP (5.86 μM). The aggregometer method of Born, as modified by Mustard et al., was employed to measure platelet aggregation. Vehicle control trials were performed and compared with the extent of aggregation induced in PRP containing various concentrations of the test compounds. Dose-response curves were thus obtained and IC50 values determined.

human PRP = details: cited from earlier work
platelet aggregation = details: prior art description; cited from earlier work

| Compound | potency relative to the compound of Formula (ii) (inhibition of ADP-induced platelet aggregation) [1] | IC50 (human PRP vs ADP) (human PRP) [µg/mL] | inhibition of platelet aggregation (in words) (platelet aggregation) |
| --- | --- | --- | --- |
| CCOC(=O)N(Cc1nc(-c2ccccc2)c(-c2ccccc2)o1)c1cccc(OCC(=O)O)c1 [Compound 13d, [3-[[(4,5-diphenyl-2-oxazolyl)methyl](ethoxycarbonyl)amino]phenoxy]acetic acid] | four times as potent | – | – |
| O=C(O)CCCCCCCOc1nc(-c2ccccc2)c(-c2ccccc2)n1-c1ccccc1 [Octimibate] | – | 1 (≈ 2.2 µM) | broad spectrum inhibitor of platelet aggregation |
| O=C(O)CCCCCCCOc1nc(-c2ccccc2)c(-c2ccccc2)n1-c1ccccc1 [octimibate sodium] | – | – | possessing anti-aggregatory activity |
